Patent US20250188041A1, “NEW COMPOUNDS AND TREATMENT OF RENAL CELL CARCINOMA” (Trustlife Global Inc., priority 2022, published 2025)
pIC50: −log10 of the molar value. “Also recorded” adds a separate entry of the source. *1 amine or outer side, *2 acyl side, *3 side chain or, on linkers, in order; H or OH if unused. Where a SMILES comes first, the peptide text is derived from it. Bridges are numbered along the chain shown (N, C = ends). Roman numbers before positions name the chains, in order. [ ]: non-standard residue; d: D form. Actinocin(9to1) = Cc1c2oc3c(C)ccc(C(=O)[*:1])c3nc-2c(C(=O)[*:2])c(N)c1=O; NMeV = CN[C@H](C(=O)O)C(C)C; Sar = CNCC(=O)O

How the values were obtained:
Assay type in all cases: cell-based, Human
[1] = system: BUB1B; experiment: Western blot, BUB1B expression in Caki-1 treated with TG-101209 alternatives; settings: Caki-1, 5 μM of target drug, 1 day (FIG. 41; method says 2 days)
Experimental: (§1) Cell culture 2: Caki-1 was purchased from CLS Cell Lines Service (Germany). The cells were maintained in McCoy's SA (modified) medium (16600082, Thermo Fisher Scientific, USA) and supplemented with 10% fetal bovine serum (FBS, F7524, Sigma-Aldrich), 1% Penicillin/Streptomycin (P4333, Sigma-Aldrich).
The target drugs developed as alternatives to TG-101209, were dissolved in 0.1% DMSO (41639, Sigma-Aldrich). Caki-1 cells from cell culture 2 were seeded in a 6-well plate at 3×10^5 cells per well. […]
The cells were washed with PBS solution and then lysed with CelLytic M (C2978, Sigma-Aldrich) lysis buffer containing protease inhibitors (11836170001, Roche). The cell lysates were centrifuged at 12 000 rpm for 10 min and supernatants were collected. Protein Assay Dye Reagent (5000006, Bio-Rad) was used for the determination of protein concentration. The absorbance of the proteins was measured spectrophotometrically at 595 nm by a microplate reader (Hidex Sense Beta Plus). Protein electrophoresis was performed using Mini-PROTEAN® TGX™ Precast Gels (4561086, Bio-Rad) and then the separated proteins were transferred to a Trans-Blot Turbo Mini 0.2 um PVDF Transfer Packs membrane (1704158, Bio-Rad) by using Trans-Blot® Turbo™ Transfer System (Bio-Rad). The membrane was blocked with 5% skim milk for 30 min at 4° C. with gentle rocking. After blocking, the membrane was treated with primary antibodies: Anti-BUB1B (HPA008419, Human Protein Atlas, Sweden) and Anti-Beta actin (ab8227, Abcam) as a loading control overnight at 4° C. on a rocking platform. After the treatment of primary antibodies, the membrane was washed three times with TBS-T buffer (A09-7500-100, Medicago). Then, Goat anti-Rabbit IgG-HRP (ab205718, Abcam) was treated as the secondary antibody for 30 min at 4° C. with gentle rocking.

[2] = system: Caki-1; experiment: CCK-8 cell viability assay of drug-treated Caki-1; settings: 24 h, vs DMSO control
Experimental: (§2) Cell culture 1: Human clear cell renal cell carcinoma (ccRCC) cell line Caki-1 was obtained from the Karolinska Institute of Environmental Medicine, Stockholm, Sweden, derived from a ccRCC patient. The cells were cultured in RPMI 1640 medium with 10% fetal bovine serum (FBS) and 1% penicillin/streptomycin. The cells were cultivated at 37° C. in a humidified incubator with 5% CO2. TG-101209, NVP-TAE684, MK-0752, actinomycin-d, and panobinostat were purchased from Selleckchem ([…], […], […], […], […], Selleckchem, Houston, TX, USA), and withaferin-a was purchased from Sigma (W4394, Sigma-Aldrich, Saint Louis, MO, USA). These drugs were dissolved in DMSO. The cells (from cell culture 1) were seeded in a 96-well plate at 20×10^3 cells per well. After seeding for 24 h, the cells were treated for 24 h with the target drugs: TG-101209 (6 nM), NVP-TAE684 (3 nM), MK-0752 (5 nM), withaferin-a (4 uM), actinomycin-d (0.3 nM), and panobinostat (5 nM). The cells in the negative control group were only treated by DMSO for one day. Cell proliferation was detected by Cell Counting Kit-8 (CCK-8) assay. The 10 μl of CCK-8 reagent (1:10) was added to each well of 96-well plate with siRNA transfected cells or drug-treated cells by manufacturer's instruction. The 96-well plate was incubated at 37° C. for 2 hours and then measured absorbance at 450 nm using a microplate reader (Hidex Sense Beta Plus).

[3] = system: Caki-1 cells; experiment: MTT cell viability assay of Caki-1 treated with TG-101209 and its alternatives
Experimental: as §1
The cytotoxic effects of the TG-101209 and its alternatives on the Caki-1 cells were tested by MTT (Thiazolyl Blue Tetrazolium Bromide) method. 1.5×10^4 cells were seeded per well in a 96-well plate in 100 μL growth media. […] After the incubation period, 5 mg/ml MTT (M2128, Sigma-Aldrich) solution in PBS (10 μL) was added to each well. After 1 hour, the MTT solution and all media were removed from the wells. 100 μl of DMSO was added and mixed to dissolve the formazan crystals. Cell viability was analysed by measuring the absorbance of the dissolved formazan at a wavelength of 570 nm with a microplate reader (Hidex Sense Beta Plus).

[4] = system: BUB1B; experiment: Western blot, BUB1B protein level in Caki-1 treated with repurposed drug; settings: Caki-1, 6 nM, 24 h, compared to negative control (DMSO)
Experimental: as §2, with “The cells were washed with phosphate-buffered saline (PBS) and lysed with CelLytic M ([…], Sigma-Aldrich, Saint Louis, MO, USA) lysis buffer containing protease inhibitors. […] The protein bands were” for “Cell proliferation was”, “detected” for “detected by Cell Counting Kit-8 (CCK-8) assay. The 10 μl of CCK-8 reagent (1:10) was added to each well of 96-well plate”, “ImageQuanattm LAS 500 (29-0050-63, GE) automatic exposure procedure” for “siRNA transfected cells”, “6 min exposure.” for “drug-treated cells by manufacturer's instruction. The 96-well plate was incubated at 37° C. for 2 hours and then measured absorbance at 450 nm using a microplate reader (Hidex Sense Beta Plus).”

[5] = system: RRM2; experiment: Western blot, RRM2 protein level in Caki-1 treated with repurposed drugs; settings: 24 h, vs DMSO control
Experimental: Cell culture 1: Human clear cell renal cell carcinoma (ccRCC) cell line Caki-1 was obtained from the Karolinska Institute of Environmental Medicine, Stockholm, Sweden, derived from a ccRCC patient. The cells were cultured in RPMI 1640 medium with 10% fetal bovine serum (FBS) and 1% penicillin/streptomycin. The cells were cultivated at 37° C. in a humidified incubator with 5% CO2. TG-101209, NVP-TAE684, MK-0752, actinomycin-d, and panobinostat were purchased from Selleckchem ([…], […], […], […], […], Selleckchem, Houston, TX, USA), and withaferin-a was purchased from Sigma (W4394, Sigma-Aldrich, Saint Louis, MO, USA). These drugs were dissolved in DMSO. The cells (from cell culture 1) were seeded in a 96-well plate at 20×10^3 cells per well. After seeding for 24 h, the cells were treated for 24 h with the target drugs: TG-101209 (6 nM), NVP-TAE684 (3 nM), MK-0752 (5 nM), withaferin-a (4 uM), actinomycin-d (0.3 nM), and panobinostat (5 nM). The cells in the negative control group were only treated by DMSO for one day. The cells were washed with phosphate-buffered saline (PBS) and lysed with CelLytic M ([…], Sigma-Aldrich, Saint Louis, MO, USA) lysis buffer containing protease inhibitors. The lysates were centrifuged at 12 000 rpm for 5 min, and the supernatant was collected. The proteins were separated by Mini-PROTEAN® TGXTM Precast Gels (BioRad, Berkeley, CA, USA) and transferred to a Trans-Blot Turbo Mini 0.2 um PVDF Transfer Packs membrane (BioRad, Berkeley, CA, USA) by using Trans-Blot® TurboTM Transfer System (Bio-Rad, Berkeley, CA, USA). The antibodies for BUB1B (HPA008419), RRM2 (HPA056994), CEP55 (HPA023430), ASF1B(HPA069385), CCNB2 (HPA008873), and GAPDH (sc47724, Santa Cruz Biotechnology, Inc.) were used for primary immunoblotting. All the antibodies were diluted at 1:10000 concentration. The membranes were incubated in primary antibody solution overnight at 4° C. with gentle rocking. […] The protein bands were detected with ImageQuanattm LAS 500 (29-0050-63, GE) automatic exposure procedure or 6 min exposure.

SMILES: Cc1cnc(Nc2ccc(N3CCN(C)CC3)cc2)nc1Nc1cccc(S(=O)(=O)NC(C)(C)C)c1 [TG-101209, reference compound]
- expression levels of BUB1B [1]: significantly lower the expression levels of BUB1B
- cell viability ([2]; Caki-1, CCK-8, 6 nM): significantly reduced
- cell viability (MTT assay) ([3]; Caki-1, 10 μM, 1 day): most profound effect on the cell viability
- pIC50 ([3]; FIG. 43, assay not named, presumably Caki-1 cell viability): ~5.52
- Ranking, Cell viability (%) ([3]; top five target drugs, MTT assay, 10 μM, 1 day, rank 1 = greatest reduction): 5
- protein level of BUB1B [4]: significantly decreased; also recorded: significantly reduced

SMILES: Cc1c2oc3c(C)ccc(C(=O)N[C@@H]4C(=O)N[C@H](C(C)C)C(=O)N5CCC[C@H]5C(=O)N(C)CC(=O)N(C)[C@@H](C(C)C)C(=O)O[C@@H]4C)c3nc-2c(C(=O)N[C@@H]2C(=O)N[C@H](C(C)C)C(=O)N3CCC[C@H]3C(=O)N(C)CC(=O)N(C)[C@@H](C(C)C)C(=O)O[C@@H]2C)c(N)c1=O [actinomycin-d] (I: T[dV]P[Sar][NMeV] / II: T[dV]P[Sar][NMeV]; ester I:1-I:C, II:1-II:C; linker I:N-II:N via Actinocin(9to1))
- protein level of RRM2 ([5]; Caki-1, 0.3 nM): does not work for inhibiting RRM2

SMILES: CC1=C(CO)C(=O)O[C@@H]([C@@H](C)[C@H]2CC[C@H]3[C@@H]4C[C@H]5O[C@]56[C@@H](O)C=CC(=O)[C@]6(C)[C@H]4CC[C@]23C)C1 [withaferin-a]
- cell viability ([2]; Caki-1, CCK-8, 4 uM): significantly reduced
- protein level of RRM2 ([5]; Caki-1, 4 uM): significantly suppressed

SMILES: COc1cc(N2CCC(N3CCN(C)CC3)CC2)ccc1Nc1ncc(Cl)c(Nc2ccccc2S(=O)(=O)C(C)C)n1 [NVP-TAE684]
- cell viability ([2]; Caki-1, CCK-8, 3 nM): significantly reduced
- protein level of RRM2 ([5]; Caki-1, 3 nM): significantly suppressed
